Source: paper PMC7144934, “Design, Synthesis and Biological Evaluation of Phenyl Urea Derivatives as IDO1 Inhibitors” (Molecules, 2020)
“Also recorded” adds a separate entry of the source. Like-named read-outs stand apart in the source and are kept apart here. Blank lines part the entries; values can stand above or below the molecule they belong to.

Legend:
[1] = molecular target: T1, Recombinant human IDO1 (rhIDO1) (Homo sapiens, UniProt P14902); experiment: Enzyme assay for IDO1 inhibition; assay type: biochemical; details: for IC50: 37 °C, 45 min
T1 construct: made in house

human IDO1 = tested on: human IDO1; design: method as in earlier work; details: human IDO1/HEK 293 cells; read-out: IDO1 inhibitory activity IC50; cited from earlier work
[2] = molecular target: T2, Recombinant human TDO (rhTDO) (Homo sapiens, UniProt P48775); experiment: Enzyme assay for TDO inhibition; assay type: biochemical; details: 37 °C, 45 min
T2 construct: made in house
Procedure: Recombinant human IDO1 and TDO were expressed and purified according to the reported procedures. The assay was performed according to the literature: A standard reaction mixture (100 µL) containing 100 mM potassium phosphate buffer (pH 6.5), 40 mM ascorbic acid (neutralized with NaOH), 200 µg/mL catalase, 20 µM methylene blue and 0.05 µM rhIDO1 or rhTDO was added to the solution containing the substrate L-tryptophan and the test sample at a determined concentration. The reaction was carried out at 37 °C for 45 min and stopped by adding 20 µL of 30% (w/v) trichloroacetic acid. After heating at 65 °C for 15 min, 100 µL of 2% (w/v) p-dimethylaminobenzaldehyde in acetic acid was added to each well. The yellow pigment derived from kynurenine was measured at 492 nm using a SYNERGY-H1 microplate reader (Biotek Instruments, Inc., Winooski, VT, USA). IC50 was analyzed using the GraphPad Prism 8.0 software (GraphPad Software, San Diego, CA, USA).

[3] = tested on: mouse melanoma cells B16F10; experiment: B16F10 subcutaneous xenograft model; assay type: in vivo, mice
Procedure: (§1) The mouse melanoma cells B16F10 were cultured and harvested in saline at 6 × 10^6 cells/0.2 mL volume. Cells (0.2 mL) were injected subcutaneously into male C57BL/6 mice at day 0 of the experiment, and treatment was initiated at day 1 following the mice enrolled randomly in control and experimental groups. For control group, 0.5% CMCNa was orally administered every day. The CTX group were administered CTX intraperitoneally at the dose of 100 mg/kg. Compound i12 was dissolved in 0.5% CMC-Na for oral treatment. After 17 days, the mice were sacrificed and the tumors were stripped and weighted. The tumor growth inhibition (TGI) was calculated as TGI = (1 − tumor weight treatment/tumor weight vehicle) × 100%. The statistical analysis was performed with GraphPad Prism 8.0 software and the significance level was evaluated with one-way ANOVA model.

[4] = Single dose pharmacokinetic study in male C57BL/6 mice; assay type: in vivo; details: for AUC(0-inf): male, C57BL/6, mouse; for MRT inf: read-out: MRT(0–∞); for half-life: read-out: t1/2β (converted)
Procedure: The animal Care and Welfare Committee of Institute of Materia Medica, Chinese Academy of Medical Sciences approved all animal care, housing, and laboratory procedures. Male C57BL/6 mice were used in the single dose pharmacokinetic studies. Compound i12 was prepared as a 3 mg/mL suspension with 0.5% CMC for oral use and was formulated as a 3 mg/mL solution with 10% DMSO in 20% HP-β-CD for intravenous injection. Sixteen mice were divided into two groups, 10 in the oral group and six in the intravenous group. After fasting 12 h with free access to water, mice were treated with a 3 mg/kg i.v. or 30 mg/kg oral dose of compound i12. Blood samples (50 µL) were collected at 5, 15, 30 min, 1, 2, 4, 6, 8, 12 and 24 h after oral administration and 2, 5, 15, 30 min, 1, 2, 4, 6, 8, 12 and 24 h after intravenous injection. After centrifugation, the plasma samples (20 µL) were precipitated by four volumes of acetonitrile. The supernatant were analyzed by liquid chromatography/tandem mass spectrometry with a Zorbax C18 column (50 mm × 2.1 mm, 3.5 µm). Compound detection was performed with the mass spectrometer in positive ionization mode by t-SIM: m/z 489.209 for compound i12. The pharmacokinetic parameters were calculated with WinNonlin software V6.3 using non-compartmental analysis (Pharsight Corporation, Mountain View, CA, USA).

[5] = tested on: mouse pancreatic cancer cells PAN02; experiment: PAN02 pancreatic cancer subcutaneous xenograft model; assay type: in vivo, mice
Procedure: as §1, with “pancreatic cancer” for “melanoma”, “PAN02” for “B16F10”, “60 mg/kg” for “100 mg/kg.”, “15” for “17”

pathway = tested on: pathway; design: method as in PMID 30760888; details: Figure 1; cited from earlier work

T2 sequence (P48775 whole entry): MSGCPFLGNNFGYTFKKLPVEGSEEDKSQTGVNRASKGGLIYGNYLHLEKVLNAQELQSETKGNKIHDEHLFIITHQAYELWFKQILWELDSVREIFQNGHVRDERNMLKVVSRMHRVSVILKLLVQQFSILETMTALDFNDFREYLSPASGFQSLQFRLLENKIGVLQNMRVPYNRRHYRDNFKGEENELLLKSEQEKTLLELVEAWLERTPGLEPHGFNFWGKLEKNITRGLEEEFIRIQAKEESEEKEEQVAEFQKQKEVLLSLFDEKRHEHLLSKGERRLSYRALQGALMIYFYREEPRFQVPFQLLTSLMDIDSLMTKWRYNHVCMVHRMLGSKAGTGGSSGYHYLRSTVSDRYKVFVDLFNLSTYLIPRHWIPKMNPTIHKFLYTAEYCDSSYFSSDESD
T1 sequence (P14902 whole entry): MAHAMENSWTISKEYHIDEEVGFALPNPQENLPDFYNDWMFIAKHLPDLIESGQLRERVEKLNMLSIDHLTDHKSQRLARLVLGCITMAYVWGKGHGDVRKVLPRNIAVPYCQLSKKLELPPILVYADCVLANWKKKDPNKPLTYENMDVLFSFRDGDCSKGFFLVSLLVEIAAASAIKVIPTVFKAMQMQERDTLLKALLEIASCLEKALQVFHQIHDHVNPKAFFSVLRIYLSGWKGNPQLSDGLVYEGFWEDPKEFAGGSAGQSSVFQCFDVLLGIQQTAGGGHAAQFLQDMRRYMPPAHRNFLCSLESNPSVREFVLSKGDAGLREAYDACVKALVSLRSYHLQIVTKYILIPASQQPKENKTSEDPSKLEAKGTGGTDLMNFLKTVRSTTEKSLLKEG

IC50 ([1]; rhIDO1 enzyme assay): 8.57 µM
IC50 [2]: > 100 µM
Compound: CC(C)CN(CC(C)C)c1ccc(C(CC(=O)O)C(F)(F)F)cc1NC(=O)Nc1ccc(F)cc1F (stereo not drawn) [BMS-E30, reference compound]
IC50 (human IDO1): 0.0007 µM

melting point: 94.1 to 95.7 °C
IC50 ([1]; rhIDO1 enzyme assay): 34.1 µM
IC50 [2]: > 100 µM
Compound: CC1CC(C)CN(c2ccc(C(CC(=O)O)C(F)(F)F)cc2NC(=O)Nc2ccccc2)C1 (stereo not drawn) [i1, 3-[4-(3,5-dimethylpiperidin-1-yl)-3-(3-phenylureido)-phenyl]-4,4,4-trifluorobutyric Acid]

fold improvement in IDO1 inhibitory activity compared to compound i1 ([1]; ratio of IDO1 enzyme IC50 values): 100 fold
IC50 ([1]; rhIDO1 enzyme assay): 0.331 µM
IC50 [2]: > 100 µM
AUC(0–∞) ([4]; PO 30 mg/kg, 30 mg/kg): 12,849 h·ng/mL
AUC(0-inf) ([4]; plasma, iv, 3 mg/kg, IV 3 mg/kg): 2160 ng·h/mL
AUC(0-inf) ([4]; plasma, po, 30 mg/kg, PO 30 mg/kg): 11500 ng·h/mL
AUC(0-t) ([4]; mouse, plasma, IV 3 mg/kg): 1320 ng·h/mL
Cmax ([4]; mouse, plasma, IV 3 mg/kg): 6960 ng/mL
clearance ([4]; mouse, plasma, IV 3 mg/kg, read-out: Cl (plasma clearance)): 22.4 mL/min/kg
MRT inf ([4]; mouse, plasma, IV 3 mg/kg): 8.6 h
Vd ([4]; mouse, plasma, IV 3 mg/kg, read-out: Vss): 15.8 L/kg
half-life ([4]; mouse, plasma, IV 3 mg/kg): 7.17 h
AUC(0-t) ([4]; mouse, plasma, PO 30 mg/kg): 11500 ng·h/mL
Cmax ([4]; mouse, plasma, PO 30 mg/kg): 2700 ng/mL
Tmax ([4]; mouse, plasma, PO 30 mg/kg): 2 h
bioavailability ([4]; mouse, plasma, PO 30 mg/kg vs IV 3 mg/kg, read-out: F% (oral bioavailability)): 87.4%
MRT inf ([4]; mouse, plasma, PO 30 mg/kg): 8.18 h
half-life ([4]; mouse, plasma, PO 30 mg/kg): 11.2 h
Compound: CC1CC(C)CN(c2ccc(C(CC(=O)O)C(F)(F)F)cc2NC(=O)Nc2ccc(C#N)cc2)C1 (stereo not drawn) [i12, 3-[3-[3-(4-cyanophenyl)ureido]-4-(3,5-dimethylpiperidin-1-yl)-phenyl]-4,4,4-trifluorobutyric Acid]
tumor growth inhibition (TGI) ([3]; 15 mg/kg daily, oral, 17 days, tumor weight): 40.5%
body weight compared with the control group ([3]; i12 orally 15, 30 or 100 mg/kg, B16F10 xenograft mice): no obvious body weight difference; also recorded: no obvious reduction; also recorded: no significant changes
IDO1 inhibitory activity (in words) ([1]; rhIDO1 enzyme assay): more potent IDO1 inhibitory activity than the unsubstituted i1
tumor growth inhibition (TGI) ([5]; 30 mg/kg daily, oral, 15 days, tumor weight): 34.3%
body weight of each group after the treatment ([5]; i12 orally 10, 30 or 100 mg/kg, PAN02 xenograft mice): no obvious body weight difference

Compound: Cn1cc(C[C@@H](N)C(=O)O)c2ccccc21 [indoximod]
IC50 (pathway): 0.45 µM
